Results taken from US20120238604A1, “CYTOTOXIC COMPOUNDS” (Molecular Discovery Systems, priority 2009, published 2012).
Read-outs that look alike come from different tables or passages of the source.

Columns and labels:
[1] = system: HeLa cells expressing H2B-GFP; assay: Induction of mitotic arrest (EC50), mitotic index by phospho-histone 3 staining; type: cell-based; conditions: Homo sapiens, concentration for 50% induction of mitotic arrest, overnight, read-out: EC50 (mitosis) (HeLa)
Method: Parallel plates were treated overnight with the compounds to visualize the mitotic cells by staining with anti-phospho-histone 3 and Alexafluor 546 nm secondary antibodies after fixation with 4% paraformaldehyde. Following imaging of the nuclear GFP and phospho-histone 3 signals using an IN Cell Analyser (GE Healthcare), determination of the mitotic index by analysis of the images with Developer™ software (GE Healthcare) permitted estimation of the concentration that leads to 50% induction of the mitotic arrest (EC50). It can be seen that inhibition of cell proliferation and mitosis correlate well for the compounds tested.

[2] = system: HeLa cells expressing H2B-GFP; assay: Inhibition of cell proliferation (GI50) by nuclear counts, IN Cell Analyser; type: cell-based, human; conditions: for GI50: Homo sapiens; for GI50 / Anti-proliferative activity (effect of substitution, in words): HeLa; for GI50 / GI50 (HeLa): concentration causing 50% inhibition of cell proliferation, nuclear counts every 24 hours; for Anti-proliferative activity (effect of substitution, in words): text comment on Table 3
Method: Table 3 HeLa cells expressing H2B-GFP were plated in 96-well plates and exposed to concentrations ranging from 100 μM to […] of the indicated compounds C1-C78. The number of cells was then determined every 24 hours by imaging of the plates using an IN Cell Analyser (GE Healthcare), followed by measurement of the number of intact cell nuclei using Developer™ software (GE Healthcare). Drug concentrations that cause 50% inhibition of cell proliferation (GI50) were determined from the nuclear counts using GraphPad Prism software or ED50v10 freeware.

[3] = system: HeLa cells expressing H2B-GFP; assay: Perturbation of mitotic spindle organisation and assembly, anti-β-tubulin staining; type: cell-based, human; conditions: 20 μM, overnight
Method: HeLa cells stably expressing a green fluorescent marker of nuclear DNA (H2B-GFP) were exposed overnight to carrier (DMSO) or 20 μM compounds A1 and B3. The cells were then fixed with methanol, stained with mouse monoclonal anti-β-tubulin antibody and Alexafluor 546 nm goat anti-mouse antibody, and fluorescent signal visualised by microscopy. The open circle indicates a cell with a perturbed mitotic spindle while the arrow indicates a cell with a mostly disassembled mitotic spindle.
These cells were exposed overnight to carrier (0.1% (v/v) DMSO) or an equivalent volume of DMSO containing compounds A1 and B3 (final concentration in the culture medium was 20 μM). The cells were then briefly rinsed with phosphate-buffered saline (PBS) prior to fixation with 100% methanol at −20° C. The fixed cells were then stained with mouse monoclonal anti-β-tubulin antibody and Alexafluor 546 nm goat anti-mouse antibody (diluted 400× from commercial stocks into PBS containing 10 mg/ml bovine serum albumin (BSA)). The GFP and 546 nm fluorescence signals were then visualised using a microscope equipped for digital confocal epifluorescence imaging. The open circle in FIG. 1 represents a cell with a perturbed mitotic spindle while the arrow points to a cell with a mostly unassembled mitotic spindle.

[4] = system: HeLa cells expressing H2B-GFP; assay: Induction of apoptosis, Annexin V binding; type: cell-based, human; conditions: overnight; 20 μM compound A1 or 100 nM paclitaxel
Method: HeLa cells were exposed overnight to 20 μM compound A1 or 100 nM paclitaxel, stained with a fluorescent Annexin V marker of apoptosis and visualised by epifluorescence microscopy following fixation.
FIG. 3 The H2B-GFP-expressing HeLa cells were treated overnight with 20 μM compound A1 or 100 nM paclitaxel. The cells were then exposed to Annexin-V tagged with Alexafluor 546 nm and visualized using an epifluorescence microscope equipped for digital imaging following fixation with 4% para-formaldehyde.

Row | EC50 ([1]; values in nM) [nM] | GI50 [2] [µM] | Structure (SMILES) | further results
1 | ~500 | – | COc1ccccc1/C=N/NC(=S)Nc1ccccc1OC(F)(F)F [CB60] | –
2 | ~200 | – | COc1ccccc1/C=N/NC(=S)Nc1ccc(F)cc1C(F)(F)F [CB61] | –
3 | > 10000 | – | CCOc1ccccc1NC(=S)N/N=C/c1cc(N(O)O)ccc1OC [CB68] | –
4 | – | 0.1 to 0.3 | COc1ccccc1/C=N/NC(=S)Nc1cccc2ccccc12 [CB49] | –
5 | ~1000 | – | CCOc1ccccc1NC(=S)N/N=C/c1cccnc1OC [CB73] | –
6 | – | ~0.3 | COc1cc(C)c(NC(=S)N/N=C/c2ccccc2OC)cn1 [CB47] | –
7 | > 10000 | – | COc1ccccc1/C=N/NC(=S)Nc1ccc(-c2ccccc2)cc1OC(F)(F)F [CB64] | –
8 | – | 1 | COc1ccccc1/C=N/NC(=S)Nc1ccc(F)c(C)c1 [CB29] | –
9 | – | ~5 | COc1ccccc1/C=N/NC(=S)NCc1cccc(C)c1 [CB36] | –
10 | – | 0.1 to 0.3 | COc1ccccc1/C=N/NC(=S)Nc1cccnc1C [CB52] | –
11 | – | ~5 | COc1ccccc1/C=N/NC(=S)NC(c1ccccc1)c1ccccc1 [CB41] | –
12 | > 10000 | – | COc1ccccc1/C=N/NC(=S)Nc1ccc2c(c1)OCO2 [CB76] | –
13 | ~1000 | – | CCOc1ccccc1NC(=S)N/N=C/c1cc(O)ccc1OC [CB74] | –
14 | – | 0.1 to 0.3 | COc1ccccc1/C=N/NC(=S)Nc1cnccc1C(F)(F)F [CB48] | –
15 | – | ~1 | COc1ccccc1/C=N/NC(=S)Nc1cccc(C)n1 [CB55] | –
16 | – | 0.017 | COc1ccccc1/C=N/NC(=S)Nc1cccnc1OC [CB54] | –
17 | – | ~3 | COc1ccccc1/C=N/NC(=S)Nc1ccccc1C#N [CB37] | –
18 | > 10000 | – | CCN(CC)CCOc1ccccc1NC(=S)N/N=C/c1ccccc1OC [CB66] | –
19 | 50 | 0.015 | COc1ccccc1/C=N/NC(=S)Nc1cc(Cl)ccc1OC [CB31] | –
20 | – | 0.003 | COc1ccccc1/C=N/NC(=S)Nc1ccccc1C(C)C [CB46] | Anti-proliferative activity (effect of substitution, in words) [2]: greatly increase the anti-proliferative activity
21 | > 10000 | – | CCOc1ccccc1NC(=S)N/N=C/c1ccncc1N [CB72] | –
22 | – | 0.013 | CCc1ccccc1NC(=S)N/N=C/c1ccccc1OC [CB45] | Anti-proliferative activity (effect of substitution, in words) [2]: greatly increase the anti-proliferative activity
23 | ~1000 | – | COc1ccccc1/C=N/NC(=S)Nc1ccccc1OCC(C)C [CB56] | –
24 | – | 0.5 | FC(F)(F)c1ccccc1NC(=S)N/N=C/c1cccc2c1OCO2 [CB40] | –
25 | > 3000 | – | CCOc1ccccc1NC(=S)N/N=C/c1cnccc1OC [CB67] | –

Row | EC50 ([1]; values in nM) [nM] | GI50 [2] [µM] | Structure (SMILES) | further results
26 | – | ~5 | COc1ccccc1/C=N/NC(=S)Nc1ccc(C(C)C)cc1 [CB43] | –
27 | > 10000 | – | COc1ccccc1/C=N/NC(=S)Nc1cccc2c1CCNC2 [CB69] | –
28 | – | ~5 | COc1ccccc1/C=N/NC(=S)Nc1c(C)cccc1C [CB44] | –
29 | – | 0.5 | COc1ccccc1/C=N/NC(=S)Nc1cc(C)cc(C)c1 [CB30] | –
30 | – | 0.0095 | COc1ccccc1/C=N/NC(=S)Nc1ccc(C)cc1C [CB42] | Anti-proliferative activity (effect of substitution, in words) [2]: greatly increase the anti-proliferative activity
31 | ~50 | – | COc1ccccc1/C=N/NC(=S)Nc1ccc(Cl)cc1C(F)(F)F [CB62] | –
32 | – | ~10 | COc1ccccc1/C=N/NC(=S)Nc1cnccc1C [CB53] | –
33 | > 10000 | – | COc1ccccc1Nc1nnc(-c2ccccc2OC)[nH]1 [CB78] | –
34 | – | ~10 | COc1ccnc(NC(=S)N/N=C/c2ccccc2OC)c1 [CB51] | –
35 | – | ~3 | COC(=O)c1sccc1NC(=S)N/N=C/c1ccccc1OC [CB50] | –
36 | 100 | – | COc1ccccc1/C=N/NC(=S)Nc1ccc(N)c(C(F)(F)F)c1 [CB65] | –
37 | ~500 | – | CCOc1ccccc1NC(=S)N/N=C/c1cnccc1C [CB71] | –
38 | – | 0.025 | COc1ccccc1/C=N/NC(=S)Nc1cccc(Cl)c1OC [CB32] | –
39 | ~2000 | – | COc1ccccc1/C=N/NC(=S)Nc1ccccc1CCO [CB57] | –
40 | – | ~3 | COc1ccccc1/C=N/NC(=S)Nc1c(C)cccc1OC [CB38] | –
41 | ~1000 | – | CCOc1ccccc1NC(=S)N/N=C/c1cccnc1N [CB70] | –
42 | 20 | – | COc1ccccc1/C=N/NC(=S)Nc1ccc(Cl)cc1Cl [CB75] | Anti-proliferative activity (effect of substitution, in words) [2]: greatly increase the anti-proliferative activity
43 | 10 | 0.011 | CCOc1ccccc1NC(=S)N/N=C/c1ccccc1OC [CB34] | Anti-proliferative activity (effect of substitution, in words) [2]: greatly increase the anti-proliferative activity
44 | ~10000 | – | COc1ccccc1/C=N/NC(=S)Nc1cc(-c2ccccc2)ccc1OC [CB59] | –
45 | 100 | 0.05 | COc1ccccc1/C=N/NC(=S)Nc1ccccc1Br [CB35] | –
46 | – | 1 | C#Cc1ccccc1NC(=S)N/N=C/c1ccccc1OC [CB33] | –
47 | ~2000 | – | CCOCCOc1ccccc1NC(=S)N/N=C/c1ccccc1OC [CB63] | –
48 | ~2000 | – | COc1ccccc1/C=N/NC(=S)Nc1cccnc1 [CB77] | –
49 | – | ~3 | COc1ccccc1/C=N/NC(=S)Nc1cccnc1Cl [CB39] | –
50 | ~10000 | – | COc1ccccc1/C=N/NC(=S)Nc1cc(C(=O)O)ccc1OC [CB58] | –

Second part, the compound before the results:

Row | Structure (SMILES) | EC50 ([1]; values in nM) [nM] | GI50 [2] [µM] | further results
51 | COc1ccccc1/C=N/NC(=S)Nc1cc(Cl)cc(Cl)c1 [C16] | – | 2.6 | –
52 | COc1ccccc1/C=N/N(C)C(=S)Nc1cccc(C)c1 [C2] | – | ~15 | –
53 | COc1ccccc1/C=N/NC(=S)Nc1ccc(Cl)cc1 [C13] | – | 1 | –
54 | COc1ccccc1/C=N/NC(=S)NCc1ccccc1 [C25] | – | – | GI50 (HeLa) [2]: no activity
55 | Cc1cccc(NC(=S)N/N=C/c2ccccc2C)c1 [C22] | – | – | GI50 (HeLa) [2]: no activity
56 | COc1ccc(OC)c(/C=N/NC(=S)Nc2cccc(C)c2)c1 [C19] | – | ≥ 15 | –
57 | COc1cccc(NC(=S)N/N=C/c2ccccc2OC)c1 [C26] | – | 1.3 | EC50 ([1]; values given in μM): ~1000 nM
58 | COc1ccccc1/C=N/NC(=S)NC1CCCCC1 [C12] | – | ≥ 20 | –
59 | COc1ccccc1/C=N/NC(=S)Nc1cccc(C#N)c1 [C11] | – | 2 | –
60 | COc1ccccc1/C=N/NC(=S)Nc1ccc(C(F)(F)F)cc1 [C23] | – | ≥ 20 | –
61 | COc1ccccc1/C=N/NC(=S)Nc1ccccc1C [C6] | 150 | 0.09 | –
62 | COc1ccccc1/C=N/N(C)C(=S)N(C)c1cccc(C)c1 [C4] | – | ≥ 20 | –
63 | COc1ccccc1/C=N/NC(=S)Nc1ccccc1Cl [C8] | 300 | 0.1 | –
64 | Fc1ccc(NC(=S)N/N=C/c2ccccc2)cc1 [A1, BENZALDEHYDE N-(4-FLUOROPHENYL)THIOSEMICARBAZONE] | – | – | Effect on mitotic spindle organisation and assembly [3]: substantial alterations in the spatial organisation of mitotic spindle fibres and chromosomes; Induction of apoptotic cells (Annexin-V binding) [4]: induction of apoptotic cells
65 | COc1ccccc1/C=N/NC(=S)Nc1cccc(F)c1 [C17] | – | ~1 | –
66 | COc1ccccc1/C=N/NC(=S)Nc1cccc(C)c1 [C1] | – | 0.7 | EC50 ([1]; values given in μM): ~1000 nM
67 | COc1ccccc1/C=N/NC(=S)Nc1ccc(F)c(Cl)c1 [C28] | – | ~3 | –
68 | COc1ccccc1/C=N/NC(=S)Nc1ccc(C#N)cc1 [C5] | – | ~20 | –
69 | COc1ccccc1/C=N/NC(=S)Nc1cccc(Cl)c1 [C24] | – | 0.5 | –
70 | COc1cccc(OC)c1/C=N/NC(=S)Nc1cccc(C)c1 [C21] | – | – | GI50 (HeLa) [2]: no activity
71 | COc1cccc(/C=N/NC(=S)Nc2cccc(C)c2)c1OC [C20] | – | – | GI50 (HeLa) [2]: no activity
72 | COc1ccc(NC(=S)N/N=C/c2ccccc2OC)cc1 [C10] | – | 2 | EC50 ([1]; values given in μM): > 1000 nM
73 | Cc1cccc(NC(=S)N/N=C/c2ccccc2F)c1 [C27] | – | ≥ 20 | –
74 | COc1ccccc1/C=N/NC(=S)Nc1ccc(C)cc1 [C18] | ≥ 30 | 0.7 | –
75 | COc1ccccc1/C=N/NC(=O)Nc1cccc(C)c1 [C14] | – | 4 | –
76 | COc1ccccc1/C(C)=N/NC(=S)Nc1cccc(C)c1 [C3] | – | ≥ 20 | –
77 | COc1ccccc1/C=N/NC(=S)Nc1ccccc1OC [C15] | ~70 | 0.025 | Anti-proliferative activity (effect of substitution, in words) [2]: greatly increase the anti-proliferative activity
78 | COc1ccccc1/C=N/NC(=S)Nc1ccccc1 [C7] | – | 5 | –
